{"source": "patent US10864193B2", "about": "“Parasiticidal compositions comprising fipronil at high concentrations” (BOEHRINGER INGELHEIM ANIMAL HEALTH USA INC., priority 2014, dated 2020)", "origin": "cited, not measured here", "conditions": "beagle dogs, spot-on administration, 14C radiolabeled drug"}
{"smiles": "N#Cc1nn(-c2c(Cl)cc(C(F)(F)F)cc2Cl)c(N)c1[S+]([O-])C(F)(F)F", "note": "(stereo not shown) [fipronil, 5-amino-3-cyano-1-(2,6-dichloro-4-trifluoromethylphenyl)-4-trifluoromethylsulfinylpyrazole]", "values": [{"measurement": "time persistently detected in the whole skin after treatment", "value": "up to 56 days"}]}
